Experiments:
HCT116 MTAP KO cells = assay: Inhibitory activity against cell proliferation (CellTiter Glo, 6 days), HCT116 MTAP KO; type: cell-based; conditions: for IC50: Homo sapiens, HCT-116, 144 h, HCT116 MTAP KO cells, 6 days, CellTiter Glo, read-out: HCT116 MTAP KO IC50; for Selectivity HCT 116-WT/ HCT116 MTAP KO: ratio of IC50 HCT116-WT / HCT116 MTAP KO
How it was run: (§1)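 Luminescence read-out (CellTiter Glo, 10 min shaking at room temperature) after 6 days of compound exposure; IC50 fitted against DMSO controls. Top dose 10000 nM, 4-fold steps, 8 points; 250 cells/well in McCoy's 5A + 10% FBS.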

PRMT5-MTA = PRMT5-MTA (Homo sapiens, UniProt O14744); assay: Enzymatic inhibitory activity against PRMT5-MTA (AlphaScreen); type: biochemical; conditions: read-out: IC50
How it was run: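 PRMT5/[…] (1 nM) was preincubated for 30 min at room temperature with 1 µM […] and 2.5 µM SAM, then exposed to compound (10-point, 3-fold from 1000 nM) for 15 min at 23 °C. Histone H4 substrate (5 nM) was added and reacted for 45 min at 23 °C. Symmetric dimethyl-R3 H4 was detected by AlphaScreen and IC50 calculated.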

HCT116-WT cells = assay: Inhibitory activity against cell proliferation (CellTiter Glo, 6 days), HCT116-WT; type: cell-based; conditions: 144 h, HCT116-WT cells, 6 days, CellTiter Glo; read-out: HCT116-WT IC50
How it was run: as §1

Chain of PRMT5-MTA (O14744 whole entry): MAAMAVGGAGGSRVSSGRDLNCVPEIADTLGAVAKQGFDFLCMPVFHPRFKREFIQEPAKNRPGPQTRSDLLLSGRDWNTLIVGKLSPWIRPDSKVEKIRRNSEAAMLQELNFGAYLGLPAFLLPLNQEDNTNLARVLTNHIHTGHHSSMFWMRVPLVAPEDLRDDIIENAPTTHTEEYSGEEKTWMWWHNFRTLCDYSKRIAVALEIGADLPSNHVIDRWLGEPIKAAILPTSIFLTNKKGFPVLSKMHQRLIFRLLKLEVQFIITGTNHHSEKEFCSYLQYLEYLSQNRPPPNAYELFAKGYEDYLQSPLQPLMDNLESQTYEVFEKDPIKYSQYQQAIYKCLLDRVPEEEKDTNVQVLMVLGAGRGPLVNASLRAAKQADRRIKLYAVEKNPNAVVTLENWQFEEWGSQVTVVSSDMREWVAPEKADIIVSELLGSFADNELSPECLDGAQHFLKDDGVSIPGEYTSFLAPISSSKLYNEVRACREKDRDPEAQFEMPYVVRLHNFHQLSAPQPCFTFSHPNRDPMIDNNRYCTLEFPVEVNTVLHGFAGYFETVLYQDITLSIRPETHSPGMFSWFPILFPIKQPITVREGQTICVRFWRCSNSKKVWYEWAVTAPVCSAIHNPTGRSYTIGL
Chain of PRMT5-MTA (Q9BQA1 whole entry partner): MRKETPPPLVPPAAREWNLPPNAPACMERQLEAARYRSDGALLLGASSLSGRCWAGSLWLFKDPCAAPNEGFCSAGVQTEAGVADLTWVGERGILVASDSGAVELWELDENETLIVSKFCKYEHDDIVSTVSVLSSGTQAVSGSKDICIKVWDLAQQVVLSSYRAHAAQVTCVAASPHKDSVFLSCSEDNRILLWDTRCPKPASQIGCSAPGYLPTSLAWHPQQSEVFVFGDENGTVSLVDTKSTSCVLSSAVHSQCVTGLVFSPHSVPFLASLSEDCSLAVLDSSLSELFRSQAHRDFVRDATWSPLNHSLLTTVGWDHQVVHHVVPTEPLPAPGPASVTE

Row | SMILES | IC50 (HCT116 MTAP KO cells) [nM] | Selectivity HCT 116-WT/ HCT116 MTAP KO (HCT116 MTAP KO cells) | IC50 (PRMT5-MTA) [nM] | IC50 (HCT116-WT cells) [nM]
1 | Cc1cc2cc(C(=O)N(Cc3ccc(C(F)(F)F)cn3)N(C)c3nccc(C(F)(F)F)n3)ccc2nc1N [Example 40, 2-amino-N',3-dimethyl-N-((5-(trifluoromethyl)pyridin-2-yl)methyl)-N'-(4-(trifluor omethyl)pyrimidin-2-yl)quinoline-6-carb ohydrazide] | 83 | 31.19 | 1.7 | 2590
2 | Cc1cc2cc(C(=O)N(Cc3ccc(C(F)(F)F)cn3)N(C)c3nccc4occc34)ccc2nc1N [Example 42, 2-amino-N'-(furo[3,2-c]pyridin-4-yl)-N', 3-dimethyl-N-((5-(trifluoromethyl)pyridin-2-yl)methyl)quinoline-6-carbohydrazide] | 49 | 54.14 | 3 | 2650
3 | Cc1cc2cc(C(=O)N(Cc3ccc(Br)cn3)N(C)c3ncccc3F)ccc2nc1N [Example 48, 2-amino-N-((5-bromopyridin-2-yl)methyl)-N'-(3-fluoropyridin-2-yl)-N',3-dimethyl quinoline-6-carbohydrazide] | 13 | 35.85 | 3.7 | 466
4 | Cc1ccnc(N(C)N(Cc2ccc(C(F)(F)F)cn2)C(=O)c2ccc3nc(N)c(C)cc3c2)n1 [Example 49, 2-amino-N',3-dimethyl-N'-(4-methylpyrimidin-2-yl)-N-((5-(trifluoromethyl)pyridin-2-yl)methyl)quinoline-6-carbohydrazide] | 80 | 22.18 | 2.2 | 1770
5 | Cc1cc2cc(C(=O)N(Cc3ccc(C(F)(F)F)cn3)N(C)c3ncc(Br)cn3)ccc2nc1N [Example 50, 2-amino-N'-(5-bromopyrimidin-2-yl)-N', 3-dimethyl-N-((5-(trifluoromethyl)pyridin-2-yl)methyl)quinoline-6-carbohydrazide] | 219 | 17.33 | 2.1 | 3800
6 | Cc1cc2cc(C(=O)N(Cc3ccc4ccccc4n3)N(C)c3ncccn3)ccc2nc1N [Example 51, 2-amino-N',3-dimethyl-N'-(pyrimidin-2-yl)-N-(quinolin-2-ylmethyl)quinoline-6-carbohydrazide] | 116 | 17.78 | 1.7 | 2060
7 | CN(c1ccccc1)N(Cc1ccc(C(F)(F)F)cn1)C(=O)c1ccc2nc(N)c3cnn(C)c3c2c1 [Example 52, 4-amino-N',1-dimethyl-N'-phenyl-N-((5-(trifluoromethyl)pyridin-2-yl)methyl)-1H-pyrazolo[4,3-c]quinoline-8-carbohydrazide] | 13 | 32.08 | 3.7 | 417
8 | Cc1cc2cc(C(=O)N(Cc3ccc(C(F)(F)F)cn3)N(C)c3ncccc3C(F)(F)F)ccc2nc1N [Example 53, 2-amino-N',3-dimethyl-N'-(3-(trifluoromethyl)pyridin-2-yl)-N-((5-(trifluoromethy 1)pyridin-2-yl)methyl)quinoline-6-carbohydrazide] | 90 | 25.34 | 1.5 | 2280
9 | Cc1cc2cc(C(=O)N(Cc3ccc(C(F)(F)F)cn3)Nc3ncccc3F)ccc2nc1N [Example 56, 2-amino-N'-(3-fluoropyridin-2-yl)-3-met hyl-N-((5-(trifluoromethyl)pyridin-2-yl)methyl)quinoline-6-carbohydrazide] | 139 | 23.99 | 3.5 | 3330
10 | Cc1cc2cc(C(=O)N(Cc3ccc(C(F)(F)F)cn3)N(C)c3ncc(OC(F)F)cn3)ccc2nc1N [Example 57, 2-amino-N'-(5-(difluoromethoxy)pyrimidin-2-yl)-N',3-dimethyl-N-((5-(trifluoromethyl)pyridin-2-yl)methyl)quinoline-6-carbohydrazide] | 490 | 11.51 | 1.9 | 5640
11 | Cc1cc2cc(C(=O)N(Cc3ccc(C(F)(F)F)cn3)N(C)c3ncc(C#N)cn3)ccc2nc1N [Example 58, 2-amino-N'-(5-cyanopyrimidin-2-yl)-N',3-dimethyl-N-((5-(trifluoromethyl)pyridin-2-yl)methyl)quinoline-6-carbohydrazide] | 210 | 14.92 | 4 | 3130
12 | Cc1cc2cc(C(=O)N(Cc3ccc(C(F)(F)F)cn3)Nc3ncccn3)ccc2nc1N [Example 59, 2-amino-3-methyl-N'-(pyrimidin-2-yl)-N-((5-(trifluoromethyl)pyridin-2-yl)methyl) quinoline-6-carbohydrazide] | 257 | 16.43 | 2 | 4220
13 | Cc1cc2cc(C(=O)N(Cc3ccc(Br)cn3)N(C)c3ncccc3C(F)(F)F)ccc2nc1N [Example 60, 2-amino-N-((5-bromopyridin-2-yl)methyl)-N',3-dimethyl-N'-(3-(trifluoromethyl)pyridin-2-yl)quinoline-6-carbohydrazide] | 60 | 11.80 | 2.3 | 708
14 | Cc1cc2cc(C(=O)N(Cc3cc(C(F)(F)F)ccn3)N(C)c3ncccn3)ccc2nc1N [Example 61, 2-amino-N',3-dimethyl-N'-(pyrimidin-2-yl)-N-((4-(trifluoromethyl)pyridin-2-yl)methyl)quinoline-6-carbohydrazide] | 126 | 18.95 | 2.4 | 2390
15 | [2H]C([2H])([2H])N(c1nccc2nccnc12)N(Cc1ccc(C(F)(F)F)cn1)C(=O)c1ccc2nc(N)c(C)cc2c1 [Example 62] | 86 | 17.42 | 5.1 | 1500
16 | [2H]C([2H])([2H])N(c1nccc2nccnc12)N(Cc1ccc(Br)cn1)C(=O)c1ccc2nc(N)c(C)cc2c1 [Example 63, 2-amino-N-((5-bromopyridin-2-yl)methyl)-3-methyl-N'-(methyl-d3)-N'-(pyrido[3,4-b]pyrazin-5-yl)quinoline-6-carbohydrazide] | 53 | 19.02 | 3.2 | 1010
17 | [2H]C([2H])([2H])N(c1ncccn1)N(Cc1ccc(Br)cn1)C(=O)c1ccc2nc(N)c(C)cc2c1 [Example 64, 2-amino-N-((5-bromopyridin-2-yl)methyl)-3-methyl-N'-(methyl-d3)-N'-(pyrimidin-2-yl)quinoline-6-carbohydrazide] | 38 | 24.16 | 1.7 | 918
18 | Cc1cc2cc(C(=O)N(Cc3ccc(C(F)(F)F)cn3)N(c3nccc4nccnc34)C3CC3)ccc2nc1N [Example 65, 2-amino-N'-cyclopropyl-3-methyl-N'-(pyrido[3,4-b]pyrazin-5-yl)-N-((5-(trifluoromethyl)pyridin-2-yl)methyl)quinoline-6-carbohydrazide] | 48 | 44.77 | 4 | 2150
19 | Cc1cc2cc(C(=O)N(Cc3ccc(C(F)(F)F)cn3)N(C)c3ncccc3Cl)ccc2nc1N [Example 66, 2-amino-N'-(3-chloropyridin-2-yl)-N',3-d imethyl-N-((5-(trifluoromethyl)pyridin-2-yl)methyl)quinoline-6-carbohydrazide] | 124 | 16.06 | 3.9 | 1990
20 | Cc1cc2cc(C(=O)N(Cc3ccc(Br)cn3)N(C)c3ncccn3)ccc2nc1N [Example 67, 2-amino-N-((5-bromopyridin-2-yl)methyl)-N',3-dimethyl-N'-(pyrimidin-2-yl)quin oline-6-carbohydrazide] | 40 | 40.08 | 1.5 | 1600
21 | Cc1cc2cc(C(=O)N(Cc3ccc(C(F)(F)F)cn3)N(C)c3ncc(Cl)cn3)ccc2nc1N [Example 69, 2-amino-N'-(5-chloropyrimidin-2-yl)-N', 3-dimethyl-N-((5-(trifluoromethyl)pyridin-2-yl)methyl)quinoline-6-carbohydrazide] | 216 | 14.63 | 2.4 | 3160
22 | Cc1cc2cc(C(=O)N(Cc3ccc(Br)cc3F)N(C)c3nccc4nccnc34)ccc2nc1N [Example 72, 2-amino-N-(4-bromo-2-fluorobenzyl)-N', 3-dimethyl-N'-(pyrido[3,4-b]pyrazin-5-yl)quinoline-6-carbohydrazide] | 92 | 17.50 | 2.7 | 1610
23 | Cc1cc2cc(C(=O)N(Cc3ccc(Br)cn3)N(C)c3nccc4nccnc34)ccc2nc1N [Example 73, 2-amino-N-((5-bromopyridin-2-yl)methyl)-N',3-dimethyl-N'-(pyrido[3,4-b]pyrazin-5-yl)quinoline-6-carbohydrazide] | 40 | 29.88 | 2.5 | 1200

Reference: patent EP4745134A1 (Jiangsu Yahong Meditech Co., Ltd., priority 2023, dated 2025)
